Measurements: patent US10150793B2, “Antagonists of CB1 receptor” (INSERM (Institut National de la Santé et de la Recherche …, priority 2011, dated 2018)

Tests used:
CHO cells = assay: Study of metabolism in vitro in CHO cells, steroids in culture medium by GC/MS; settings: CHO cells
Procedure: Plasma, brain and culture medium levels of pregnenolone (5-Pregnen-3β-ol-20-one), allopregnanolone (3α-hydroxy-5α-pregnan-20-one), epiallopregnanolone (3β-hydroxy-5α-pregnan-ol-20-one), testosterone, and 5α dihydrotestosterone were determined by GC/MS according to the of estraction, purification and quantification protocol described previously (George O, et al., Biol Psychiatry. 2010 68: 956-63, Vallee M, et al., Anal Biochem. 2000, 287:153-66).
The CHO-K1 cell line (#CCL-61, ATCC-LGC, USA) derived as a subclone from the parental CHO cell line initiated from a biopsy of an adult Chinese hamster ovary was used. The CHO-K1 cells were seeded on 24-well plates (#353047, BD Biosciences, USA) to the appropriate concentration (25×10^4 cells/well) in fresh, antibiotic-free medium constituted by 90% DMEM-Glutamax; (#31966-21, Life technologies, USA) and 10% Fetal Bovine Serum (#10270-106, Life technologies, USA).
In this example the inventors further analyzed the metabolism of pregnenolone derivatives using an in vitro test in CHO cells. These cells derived from the ovary have all the enzymes needed to metabolize pregnenolone in down stream steroids.

TNF-α = assay: Increase in plasma TNF-alpha induced by LPS; assay type: in vivo, mice; settings: Mus musculus; mice; compounds 6 mg/kg 15 min before LPS
Procedure: Trunk blood was collected and centrifuged at 3000 rpm for 15 min at 4° C. Plasma was stored at −80° C. until measurement of TNFα was carried out. Plasma TNFα levels were assessed using an ELISA kit, following the manufacturer's instructions (Fisher Scientific, Catalog #E6473C).
In this example the inventors further analyzed the ability of pregnenolone to inhibit the effects of CB1 activation in the context of inflammation and fibrosis. […] TNF-alpha is one of the cellular responses to inflammatory stimuli more involved in promoting fibrosis.
(§1) Other pregnenolone derivatives (Table 4) for which the metabolism in downstream active steroids was reduced were tested for their ability to inhibit: 1. effects of the THC-induced cannabinoid tetrade (decrease in body temperature and in locomotor activity, (THC 10 mg/kg, compounds 6 mg/kg 15-30 min before THC) that is recognized as a sound method to evaluate the activation of the CB1 receptor; 2. THC-induced increase in food intake a typical effect of CB1 activation (THC between 0.5 and 1 mg/kg, compounds between 2 and 4 mg/kg 30 min before THC); 3. the increase in TNFalpha induced by LPS, another effects typical of CB1 […] (compounds 6 mg/kg 15 min before LPS). For each compound and each test independent groups of animals were used (at least n=6 per compound/per test).

CB1 receptor [1] = biological target: T1, CB1 receptor (Mus musculus, UniProt P47746); assay: THC-induced cannabinoid tetrad (body temperature, locomotor activity, catalepsy, analgesia); assay type: in vivo, mice; design: tissue Charles River Laboratories (France) (animals); host or cells: living mice, whole animal; settings: mice; THC 10 mg/kg; compounds 6 mg/kg 15-30 min before THC
CB1 receptor [2] = biological target: T1, CB1 receptor; assay: THC-induced increase in food intake in mice; assay type: in vivo; design: tissue Charles River Laboratories (France) (animals); host or cells: living mice, whole animal; settings: mice; THC between 0.5 and 1 mg/kg; compounds between 2 and 4 mg/kg 30 min before THC
Procedure: Food intake was evaluated by measuring consumption of food in the home cages of the animals. For each animal, 50-100 g of standard laboratory chow (U.A.R., France) was placed in the cleaned home cage. The remaining amount of food was weighted 1 h later and the amount of food consumed calculated.
as §1

T1 sequence (P47746 whole entry): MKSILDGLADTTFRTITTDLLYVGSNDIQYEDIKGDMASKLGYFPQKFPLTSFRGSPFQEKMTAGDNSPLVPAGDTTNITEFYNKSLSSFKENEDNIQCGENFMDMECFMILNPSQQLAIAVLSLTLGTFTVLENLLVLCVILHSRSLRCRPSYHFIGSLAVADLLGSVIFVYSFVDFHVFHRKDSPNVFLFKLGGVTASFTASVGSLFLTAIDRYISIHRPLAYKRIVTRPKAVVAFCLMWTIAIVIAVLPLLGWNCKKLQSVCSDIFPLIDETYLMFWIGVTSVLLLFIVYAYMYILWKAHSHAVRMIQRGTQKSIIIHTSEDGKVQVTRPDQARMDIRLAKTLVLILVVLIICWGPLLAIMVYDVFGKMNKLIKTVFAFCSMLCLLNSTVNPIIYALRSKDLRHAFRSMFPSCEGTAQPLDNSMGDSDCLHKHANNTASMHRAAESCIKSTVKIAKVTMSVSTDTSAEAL

C[C@@H](O)[C@H]1CCC2C3CCC4=C[C@@H](O)CC[C@]4(C)C3CC[C@@]21C (stereo in doubt) [Compound 12, 4-Pregnen-3β,20α-diol]
metabolism in downstream active steroids (Reduced metabolism / Metabolized) (CHO cells): Reduced metabolism | inhibition in vivo at 6 mg/kg (TNF-α): 81% | % Inhibition temperature decrease (CB1 receptor [1]): 42%, P < 0.004 | % increase in motor activity (CB1 receptor [1]): 100%, P < 0.16 | % Inhibition of THC-Induced food intake (CB1 receptor [2]): ≥100%, P < 0.001

C[C@H](O)[C@@]1(O)CCC2C3CCC4=CC(=O)CC[C@]4(C)C3CC[C@@]21C (stereo in doubt) [Compound 14, 4-Pregnen-17α,20α-diol-3-one]
metabolism in downstream active steroids (Reduced metabolism / Metabolized) (CHO cells): Reduced metabolism | inhibition in vivo at 6 mg/kg (TNF-α): 65% | % Inhibition temperature decrease (CB1 receptor [1]): 45%, P < 0.001 | % increase in motor activity (CB1 receptor [1]): 277%, P < 0.004 | % Inhibition of THC-Induced food intake (CB1 receptor [2]): 70%, P < 0.06

C[C@@H](O)[C@H]1CCC2C3CCC4=CC(=O)CC[C@]4(C)C3CC[C@@]21C (stereo in doubt) [Compound 18, 4-Pregnen-20α-ol-3-one]
metabolism in downstream active steroids (Reduced metabolism / Metabolized) (CHO cells): Reduced metabolism | inhibition in vivo at 6 mg/kg (TNF-α): 65% | % Inhibition temperature decrease (CB1 receptor [1]): 25%, P < 0.04 | % increase in motor activity (CB1 receptor [1]): 146%, P < 0.1 | % Inhibition of THC-Induced food intake (CB1 receptor [2]): 30%, P > 0.25

C[C@H](O)[C@H]1CCC2C3CC=C4C[C@@H](O)CC[C@]4(C)C3CC[C@@]21C (stereo partly drawn) [Compound 20, 5-Pregnen-3β,20α-diol]
metabolism in downstream active steroids (Reduced metabolism / Metabolized) (CHO cells): Reduced metabolism | inhibition in vivo at 6 mg/kg (TNF-α): 65% | % Inhibition temperature decrease (CB1 receptor [1]): 34%, P < 0.04 | % increase in motor activity (CB1 receptor [1]): 123%, P < 0.04 | % Inhibition of THC-Induced food intake (CB1 receptor [2]): 85%, P < 0.03

CC[C@H]1CCC2C3CC=C4C[C@@H](O)CC[C@]4(C)C3CC[C@@]21C (stereo partly shown) [Compound 24, 20-Deoxypregnenolone]
metabolism in downstream active steroids (Reduced metabolism / Metabolized) (CHO cells): Reduced metabolism | inhibition in vivo at 6 mg/kg (TNF-α): 34% | % Inhibition temperature decrease (CB1 receptor [1]): 25%, P < 0.08 | % increase in motor activity (CB1 receptor [1]): 33%, P > 0.20

CC[C@]1(C(C)=O)CCC2C3CC=C4C[C@@H](O)CC[C@]4(C)C3CC[C@@]21C (stereo partly drawn) [Compound 32, 17α-Ethylpregnenolone]
metabolism in downstream active steroids (Reduced metabolism / Metabolized) (CHO cells): Reduced metabolism | inhibition in vivo at 6 mg/kg (TNF-α): 64% | % Inhibition temperature decrease (CB1 receptor [1]): 12%, P > 0.25 | % increase in motor activity (CB1 receptor [1]): −2%, P > 0.25

CO[C@H]1CC[C@@]2(C)C(=CCC3C2CC[C@@]2(C)C3CC[C@]2(C)C(C)=O)C1 (stereo partly drawn) [Compound 35, 3β-Methoxy-17α-methylpregnenolone]
metabolism in downstream active steroids (Reduced metabolism / Metabolized) (CHO cells): Reduced metabolism | inhibition in vivo at 6 mg/kg (TNF-α): 57% | % Inhibition temperature decrease (CB1 receptor [1]): 33%, P < 0.01 | % increase in motor activity (CB1 receptor [1]): −32%, P > 0.24

COC1(C(C)=O)CCC2C3CC=C4C[C@@H](O)CC[C@]4(C)C3CC[C@@]21C (stereo partly shown) [Compound 36, 17-Methoxypregnenolone]
metabolism in downstream active steroids (Reduced metabolism / Metabolized) (CHO cells): Reduced metabolism | inhibition in vivo at 6 mg/kg (TNF-α): 37% | % Inhibition temperature decrease (CB1 receptor [1]): 54%, P < 0.001 | % increase in motor activity (CB1 receptor [1]): 326%, P < 0.001 | % Inhibition of THC-Induced food intake (CB1 receptor [2]): ≥100%, P < 0.003

CC(=O)C1=CC[C@H]2[C@@H]3CC=C4CCCC[C@]4(C)[C@H]3CC[C@]12C [Compound 39, 5,16-Pregnadien-20-one]
metabolism in downstream active steroids (Reduced metabolism / Metabolized) (CHO cells): Reduced metabolism | inhibition in vivo at 6 mg/kg (TNF-α): 46% | % Inhibition temperature decrease (CB1 receptor [1]): 56%, P < 0.001 | % increase in motor activity (CB1 receptor [1]): 309%, P < 0.001 | % Inhibition of THC-Induced food intake (CB1 receptor [2]): ≥100%, P < 0.02

CC(=O)[C@@]1(C)CCC2C3CCC4=CC(=O)CC[C@]4(C)C3CC[C@@]21C (stereo partly drawn) [Compound 40, 17α-Methylprogesterone]
metabolism in downstream active steroids (Reduced metabolism / Metabolized) (CHO cells): Reduced metabolism | inhibition in vivo at 6 mg/kg (TNF-α): 57% | % Inhibition temperature decrease (CB1 receptor [1]): 18%, P < 0.02 | % increase in motor activity (CB1 receptor [1]): 57%, P < 0.21 | % Inhibition of THC-Induced food intake (CB1 receptor [2]): 74%, P < 0.07

CC(=O)[C@H]1CCC2C3CC=C4C[C@@H](OCc5ccccc5)CC[C@]4(C)C3CC[C@@]21C (stereo partly drawn) [Compound 41, 3β-Benzyloxypregnenolone]
metabolism in downstream active steroids (Reduced metabolism / Metabolized) (CHO cells): Reduced metabolism | inhibition in vivo at 6 mg/kg (TNF-α): 62% | % Inhibition temperature decrease (CB1 receptor [1]): 38%, P < 0.001 | % increase in motor activity (CB1 receptor [1]): 106%, P < 0.03

CC(=O)[C@H]1CC[C@H]2[C@@H]3CC[C@@H]4CC(=O)CC[C@]4(C)[C@H]3CC[C@]12C [Compound 60, 5β-Pregnan-3,20-dione]
inhibition in vivo at 6 mg/kg (TNF-α): 77% | % Inhibition temperature decrease (CB1 receptor [1]): 66%, P < 0.0001 | % increase in motor activity (CB1 receptor [1]): 70%, P < 0.05 | % Inhibition of THC-Induced food intake (CB1 receptor [2]): ≥100%, P < 0.002

CC(=O)[C@@]1(Cc2ccccc2)CCC2C3CC=C4C[C@@H](O)CC[C@]4(C)C3CC[C@@]21C (stereo partly drawn) [Compound 65, 17α-Benzylpregnenolone]
metabolism in downstream active steroids (Reduced metabolism / Metabolized) (CHO cells): Reduced metabolism | inhibition in vivo at 6 mg/kg (TNF-α): 65% | % Inhibition temperature decrease (CB1 receptor [1]): 53%, P < 0.003 | % increase in motor activity (CB1 receptor [1]): 142%, P < 0.03 | % Inhibition of THC-Induced food intake (CB1 receptor [2]): ≥100%, P < 0.001

C=CC[C@]1(C(C)=O)CCC2C3CC=C4C[C@@H](OC)CC[C@]4(C)C3CC[C@@]21C (stereo partly drawn) [Compound 69, 17α-Allyl-3β-methoxypregnenolone]
metabolism in downstream active steroids (Reduced metabolism / Metabolized) (CHO cells): Reduced metabolism | % Inhibition temperature decrease (CB1 receptor [1]): 4%, P > 0.39 | % increase in motor activity (CB1 receptor [1]): −49%, P > 0.1

CO[C@H]1CC[C@@]2(C)C(=CCC3C2CC[C@@]2(C)C3CC[C@]2(Cc2ccccc2)C(C)=O)C1 (stereo partly drawn) [Compound 70, 17α-benzyl-3β-methoxypregnenolone]
metabolism in downstream active steroids (Reduced metabolism / Metabolized) (CHO cells): Reduced metabolism | % Inhibition temperature decrease (CB1 receptor [1]): 8%, P > 0.49 | % increase in motor activity (CB1 receptor [1]): 2%, P > 0.48

CC(=O)[C@H]1CCC2C3CC=C4CC(N=[N+]=[N-])CC[C@]4(C)C3CC[C@@]21C (stereo partly shown) [Compound 72, 3-Azidopregnenolone]
metabolism in downstream active steroids (Reduced metabolism / Metabolized) (CHO cells): Reduced metabolism | inhibition in vivo at 6 mg/kg (TNF-α): 61% | % Inhibition temperature decrease (CB1 receptor [1]): 34%, P < 0.05 | % increase in motor activity (CB1 receptor [1]): 145%, P < 0.05 | % Inhibition of THC-Induced food intake (CB1 receptor [2]): ≥100%, P < 0.001

CC(=O)[C@H]1CCC2C3CC[C@@H]4C[C@@H](O)CC[C@]4(C)C3CC[C@@]21C (stereo partly drawn) [Compound 77, 5β-Pregnan-3β-ol-20-one (Epipregnanolone)]
metabolism in downstream active steroids (Reduced metabolism / Metabolized) (CHO cells): Reduced metabolism | inhibition in vivo at 6 mg/kg (TNF-α): 76% | % Inhibition temperature decrease (CB1 receptor [1]): 70%, P < 0.0001 | % increase in motor activity (CB1 receptor [1]): 177%, P < 0.02 | % Inhibition of THC-Induced food intake (CB1 receptor [2]): ≥100%, P < 0.01
